# Source: PubChem BioAssay AID1845208 (Molecular Pharmacology Branch, DTP, NCI, 2023)
# pIC50: −log10 of the molar value.
# Tested on: NCI-H196 SCLC complex tumor spheroid viability
# Assay: Anticancer human tumor NCI-H196 cell line growth inhibition;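 also: spheroids exposed to compounds for 7 days before readout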;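 as to viability, T/C: 100% = DMSO vehicle control wells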
# Settings: for pIC50: curve of first compound; for viability, T/C: stronger effect = lower value
# Outline: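 Complex tumor spheroids combined malignant cells with endothelial cells and mesenchymal stem cells. DNA-damaging drugs and DNA repair inhibitors were tested alone and in combination, at half-log dilutions down from clinical Cmax (top 10 microM if Cmax unknown), 0.25% DMSO final.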
structure (smiles),measurement,setting,value
COc1cc(C)[nH]c(=O)c1CN1CCc2c(Cl)cc(C(OC)C3COC3)c(Cl)c2C1=O (stereo not given) + CC[C@@]1(O)C(=O)OCc2c1cc1n(c2=O)Cc2cc3c(CN(C)C)c(O)ccc3nc2-1,pIC50,second compound 0.003 µM,< 5.00
same,pIC50,second compound 0.00949 µM,< 5.00
same,pIC50,second compound 0.03 µM,< 5.00
same,pIC50,second compound 0.0949 µM,< 5.00
same,pIC50,second compound 0.3 µM,< 5.00
same,"viability, T/C","second compound 0.003 µM, first compound 0.0316 µM",108%
same,"viability, T/C","second compound 0.003 µM, first compound 0.1 µM",105%
same,"viability, T/C","second compound 0.003 µM, first compound 0.316 µM",99.9%
same,"viability, T/C","second compound 0.003 µM, first compound 1 µM",101%
same,"viability, T/C","second compound 0.003 µM, first compound 3.16 µM",103%
same,"viability, T/C","second compound 0.003 µM, first compound 10 µM",97.8%
same,"viability, T/C","second compound 0.00949 µM, first compound 0.0316 µM",102%
same,"viability, T/C","second compound 0.00949 µM, first compound 0.1 µM",98.6%
same,"viability, T/C","second compound 0.00949 µM, first compound 0.316 µM",91.5%
same,"viability, T/C","second compound 0.00949 µM, first compound 1 µM",93.3%
same,"viability, T/C","second compound 0.00949 µM, first compound 3.16 µM",99.6%
same,"viability, T/C","second compound 0.00949 µM, first compound 10 µM",106%
same,"viability, T/C","second compound 0.03 µM, first compound 0.0316 µM",99.3%
same,"viability, T/C","second compound 0.03 µM, first compound 0.1 µM",93.5%
same,"viability, T/C","second compound 0.03 µM, first compound 0.316 µM",97.5%
same,"viability, T/C","second compound 0.03 µM, first compound 1 µM",89.2%
same,"viability, T/C","second compound 0.03 µM, first compound 3.16 µM",95.7%
same,"viability, T/C","second compound 0.03 µM, first compound 10 µM",99.3%
same,"viability, T/C","second compound 0.0949 µM, first compound 0.0316 µM",106%
same,"viability, T/C","second compound 0.0949 µM, first compound 0.1 µM",109%
same,"viability, T/C","second compound 0.0949 µM, first compound 0.316 µM",99.8%
same,"viability, T/C","second compound 0.0949 µM, first compound 1 µM",102%
same,"viability, T/C","second compound 0.0949 µM, first compound 3.16 µM",94.2%
same,"viability, T/C","second compound 0.0949 µM, first compound 10 µM",106%
same,"viability, T/C","second compound 0.3 µM, first compound 0.0316 µM",104%
same,"viability, T/C","second compound 0.3 µM, first compound 0.1 µM",101%
same,"viability, T/C","second compound 0.3 µM, first compound 0.316 µM",99.8%
same,"viability, T/C","second compound 0.3 µM, first compound 1 µM",102%
same,"viability, T/C","second compound 0.3 µM, first compound 3.16 µM",95.8%
same,"viability, T/C","second compound 0.3 µM, first compound 10 µM",88.7%
CC(C)n1c(=O)n(C)c2cnc3cc(F)c(-c4ccc(OCCCN5CCCCC5)nc4)cc3c21 + Cn1nnc2c(C(N)=O)ncn2c1=O,pIC50,second compound 1 µM,< 5.00
same,pIC50,second compound 3.16 µM,< 5.00
same,pIC50,second compound 10 µM,< 5.00
same,pIC50,second compound 31.6 µM,< 5.00
same,pIC50,second compound 100 µM,< 5.00
same,"viability, T/C","second compound 1 µM, first compound 0.0316 µM",93.1%
same,"viability, T/C","second compound 1 µM, first compound 0.1 µM",102%
same,"viability, T/C","second compound 1 µM, first compound 0.316 µM",91.8%
same,"viability, T/C","second compound 1 µM, first compound 1 µM",99.7%
same,"viability, T/C","second compound 1 µM, first compound 3.16 µM",101%
same,"viability, T/C","second compound 1 µM, first compound 10 µM",93.6%
same,"viability, T/C","second compound 3.16 µM, first compound 0.0316 µM",94.3%
same,"viability, T/C","second compound 3.16 µM, first compound 0.1 µM",102%
same,"viability, T/C","second compound 3.16 µM, first compound 0.316 µM",101%
same,"viability, T/C","second compound 3.16 µM, first compound 1 µM",119%
same,"viability, T/C","second compound 3.16 µM, first compound 3.16 µM",100%
same,"viability, T/C","second compound 3.16 µM, first compound 10 µM",94.2%
same,"viability, T/C","second compound 10 µM, first compound 0.0316 µM",90.8%
same,"viability, T/C","second compound 10 µM, first compound 0.1 µM",97.7%
same,"viability, T/C","second compound 10 µM, first compound 0.316 µM",98.4%
same,"viability, T/C","second compound 10 µM, first compound 1 µM",106%
same,"viability, T/C","second compound 10 µM, first compound 3.16 µM",106%
same,"viability, T/C","second compound 10 µM, first compound 10 µM",95%
same,"viability, T/C","second compound 31.6 µM, first compound 0.0316 µM",103%
same,"viability, T/C","second compound 31.6 µM, first compound 0.1 µM",103%
same,"viability, T/C","second compound 31.6 µM, first compound 0.316 µM",101%
same,"viability, T/C","second compound 31.6 µM, first compound 1 µM",104%
same,"viability, T/C","second compound 31.6 µM, first compound 3.16 µM",116%
same,"viability, T/C","second compound 31.6 µM, first compound 10 µM",90.8%
same,"viability, T/C","second compound 100 µM, first compound 0.0316 µM",103%
same,"viability, T/C","second compound 100 µM, first compound 0.1 µM",96.2%
same,"viability, T/C","second compound 100 µM, first compound 0.316 µM",98.3%
same,"viability, T/C","second compound 100 µM, first compound 1 µM",100%
same,"viability, T/C","second compound 100 µM, first compound 3.16 µM",95.8%
same,"viability, T/C","second compound 100 µM, first compound 10 µM",82.1%
